From patent US20260007680A1, “Compounds and Their Use as PDE4 Activators” (Mironid Limited, priority 2022, published 2026) come the findings set out here.

The experiment relates to m-IMCD3 cells. Briefly: Inhibition of PGE2-stimulated in vitro cyst formation in 3D culture of m-IMCD3 cells (Experiment 4). The experiment is classed as cell-based, mouse. To be noted: Mus musculus, mIMCD3, 144 h, 10 μM test compound, mean cyst area compared to 100% for (DMSO + PGE2) and 0% for DMSO control, read-out: % Cyst area* after incubation with 10 μM test compound. The procedure: HEK 293 and MDCK cells (Public Health England, Cell Culture Collections) were maintained in Dulbecco's Modified Eagle's Medium (DMEM) supplemented with 10% (v/v) fetal bovine serum (FBS) (Seralab), 2 mM L-glutamine and 100 U/ml penicillin streptomycin cocktail (ThermoFisher); termed complete media. Clonal HEK 293 cell lines were maintained in complete media supplemented with 0.6 mg/mL G418 (Enzo Life Sciences). Mouse inner medullary collecting duct (m-IMCD3) cells [American Type Culture Collection (ATCC)] were maintained in media consisting of DMEM/Hams F-12 50/50 Mix (DMEM F12; Corning) supplemented with penicillin streptomycin cocktail (100 U/ml) and FBS (10% v/v) (DMEM F12-10% FBS).
The mouse Inner Medullary Collecting Duct cell line (m-IMCD3) spontaneously forms cystic spheroids in 3D culture with a Type 1 collagen/Matrigel extracellular matrix. This process can be stimulated with agents which raise intracellular cAMP and is used as an in vitro model for the formation of cystic structures in the kidneys of patients with ADPKD.
Rat Collagen I (Fisher Scientific) is prepared on ice by neutralising with 1 M NaOH and diluting with a 2×volume of DMEM/F12+10% FBS. This is mixed 1:1.1 with ice cold Matrigel (Corning) for coating plates (coating mix), and 1:0.93 with Matrigel for cell plating (plating mix).
The assay is conducted in the wells of a 96-well plate culture dish using a total volume of 130 μL of collagen/Matrigel/DMEM F12-10% FBS suspension in growth media for each matrix plug per individual well. Initially, 30 μL of collagen/Matrigel/DMEM F12-10% FBS (coating mix) is added into the well of a 96 well plate and the collagen is set to a gel by incubating at 37° C. for at least 15 minutes. A second layer of 100 μL collagen/Matrigel suspension (plating mix) containing m-IMCD3 cells (2.75×10^6 m-IMCD3 cells per 96-well plate) is layered over the coating mix and the collagen/Matrigel/cell mix again set to a gel by incubating at 37° C. Cell cultures are maintained at 37° C. in an atmosphere of 5% CO2, 95% air.
Between 18 and 24 h after plating, test compound(s) as DMSO stock solutions [0.1% (v/v) final DMSO concentration] and PGE2 (100 nM final concentration) in DMEM F12-10% FBS are added in quadruplicate wells per condition. Media, together with the test compound and PGE2 are replenished after 2 or 3 days. After 6 days of culture z stack images of the wells are captured using the Nikon Eclipse Ti2-E microscope. Nikon General Analysis software is used to measure the following parameters in each well: the mean cyst area, the number of cysts, and the total cyst area.
PDE4 long form activators inhibited in vitro cyst formation in m-IMCD3 cells. Data are shown in FIG. 2 and Table 4 as mean cyst area (%), compared to 100% for (DMSO+PGE2) and 0% for DMSO control.
For `O=C(NC1CCCC1)c1cnc2cc(N3C4CCC3CNC4)nn2c1` [Example 80, 2-(3,8-diazabicyclo[3.2.1]octan-8-yl)-N-cyclopentylpyrazolo[1,5-a]pyrimidine-6-carboxamide], the activity at 10 µM came to 14%. Consider `CN1CC2CCC(C1)N2c1cc2ncc(C(=O)NC3CCCC3)cn2n1` [Example 81, N-cyclopentyl-2-(3-methyl-3,8-diazabicyclo[3.2.1]octan-8-yl)pvrazolo[1,5-a]pyrimidine-6-carboxamide], for which the activity at 10 µM is -3%. The result for `O=C(N[C@H]1CCOc2ccccc21)c1cnc2cc(C3CCNCC3)nn2c1` [Example 82, (S)—N-(chroman-4-yl)-2-(piperidin-4-yl)pyrazolo[1,5-a]pyrimidine-6-carboxamide] reads 3%; that for `CCN1CCC(c2cc3ncc(C(=O)N[C@H]4CCOc5ccccc54)cn3n2)CC1` [Example 84, (S)—N-(chroman-4-yl)-2-(1-ethylpiperidin-4-yl)pyrazolo[1,5-a]pyrimidine-6-carboxamide], 7%; that for `CN1CCC(c2cc3ncc(C(=O)NC4CCCCC4)cn3n2)CC1` [Example 86, N-cyclohexyl-2-(1-methylpiperidin-4-yl)pyrazolo[1,5-a]pyrimidine-6-carboxamide], 7%. Consider `CN1CCC(c2cc3ncc(C(=O)N[C@H]4CCOc5ccccc54)cn3n2)CC1` [Example 88, (S)—N-(chroman-4-yl)-2-(1-methylpiperidin-4-yl)pyrazolo[1,5-a]pyrimidine-6-carboxamide], for which the activity at 10 µM was found to be 15%. In the case of `O=C(NCc1ccc(F)cc1)c1cnc2cc(C3CCNCC3)nn2c1` [Example 89, N-(4-fluorobenzyl)-2-(piperidin-4-yl)pyrazolo[1,5-a]pyrimidine-6-carboxamide], the activity at 10 µM is -3%. As for `Cc1c(C(=O)NC2CCC(F)(F)CC2)cnc2cc(C3CCNCC3)nn12` [Example 91, N-(4,4-difluorocyclohexyl)-7-methyl-2-(piperidin-4-yl)pyrazolo[1,5-a]pyrimidine-6-carboxamide], the activity at 10 µM is 5%.

As to `CCN1CCC(c2cc3ncc(C(=O)NC4CCC(F)(F)CC4)c(C)n3n2)CC1` [Example 94, N-(4,4-difluorocyclohexyl)-2-(1-ethylpiperidin-4-yl)-7-methylpyrazolo[1,5-a]pyrimidine-6-carboxamide], the activity at 10 µM came out at 13%. The value for `Cc1c(C(=O)N[C@H]2CCOc3ccccc32)cnc2cc(C3CCN(C)CC3)nn12` [Example 95, N-[(4S)-3,4-dihydro-2H-1-benzopyran-4-yl]-7-methyl-2-(1-methylpiperidin-4-yl)pyrazolo[1,5-a]pyrimidine-6-carboxamide] was 13%. As for `Cc1c(C(=O)NC2CCC(F)(F)CC2)cnc2cc(C3CCN(C)CC3)nn12` [Example 96, N-(4,4-difluorocyclohexyl)-7-methyl-2-(1-methylpiperidin-4-yl)pyrazolo[1,5-a]pyrimidine-6-carboxamide], the activity at 10 µM turned out to be 11%.

`CN1CCC(c2nc3cc(C(=O)NC4CCCC4)ccc3o2)CC1` [Example 98, N-cyclopentyl-2-(1-methylpiperidin-4-yl)benzo[d]oxazole-5-carboxamide]: the activity at 10 µM is -3%.

For `O=C(NC1CCCC1)c1ccc2oc(N3CCNCC3)nc2c1` [Example 101, N-cyclopentyl-2-(piperazin-1-yl)benzo[d]oxazole-5-carboxamide], the activity at 10 µM stood at 21%. Take `CCN1CCN(c2nc3cc(C(=O)N[C@H]4CCOc5ccccc54)ccc3o2)CC1` [Example 102, (S)—N-(chroman-4-yl)-2-(4-ethylpiperazin-1-yl)benzo[d]oxazole-5-carboxamide]: the activity at 10 µM was found to be 8%. Regarding `CCN1CCN(c2nc3cc(C(=O)NC4CCCC4)ccc3o2)CC1` [Example 103, N-cyclopentyl-2-(4-ethylpiperazin-1-yl)benzo[d]oxazole-5-carboxamide], the activity at 10 µM was -1%. `O=C(N[C@H]1CCOc2ccccc21)c1ccc2oc(N3CCN(CCO)CC3)nc2c1` [Example 106, (S)—N-(chroman-4-yl)-2-(4-(2-hydroxyethyl)piperazin-1-yl)benzo[d]oxazole-5-carboxamide]: the activity at 10 µM is -3%. `CCN1CCN(c2nc3ccc(C(=O)NC4CCCC4)cc3o2)CC1` [Example 108, N-cyclopentyl-2-(4-ethylpiperazin-1-yl)benzo[d]oxazole-6-carboxamide]: the activity at 10 µM stood at 24%. Consider `O=C(NC1CCC(F)(F)CC1)c1ccc2nc(N3C4CCC3CNC4)sc2n1` [Example 116, 2-(3,8-diazabicyclo[3.2.1]octan-8-yl)-N-(4,4-difluorocyclohexyl)thiazolo[5,4-b]pyridine-5-carboxamide], for which the activity at 10 µM was -1%.

Consider `O=C(NC1CCC(F)(F)CC1)c1cc2sc(N3C4CCC3CNC4)nc2cn1` [Example 120, 2-(3,8-diazabicyclo[3.2.1]octan-8-yl)-N-(4,4-difluorocyclohexyl)thiazolo[4,5-c]pyridine-6-carboxamide], for which the activity at 10 µM was found to be 29%. With `O=C(NC1CCCC1)c1cnc2cc(N3C4CCC3CNC4)sc2c1` [Example 121, 2-(3,8-diazabicyclo[3.2.1]octan-8-yl)-N-cyclopentylthieno[3,2-b]pyridine-6-carboxamide], the activity at 10 µM amounted to 3%.
